Reference: patent US12091393B2, “Small molecule vaccine adjuvant for enhancing or prolonging immune response” (The Regents of the University of California, priority 2018, dated 2024)
Entries after “also recorded” stand apart in the source; their conditions may differ. Where two headings read alike, the source gives them in different places.

Key:
NF-κB [1] = assay: cell-based NF-κB FRET assay; details: compound + LPS; two point normalized, compound 1 as 200%, LPS (10 ng/mL) as 100%
From the text: Site A was assigned the 4-substituent of thiazole ring, site B was the thiazole ring itself, site C was the central amide bond in the structure, site D was the benzene ring bearing 1,4-carboxyl and sulfamoyl group, site E was the sulfonamide functional group and site F was the amide substituent on the sulfamoyl group.

THP-1 cells = assay: Cell viability assay (MTT); assay type: cell-based; details: compound 5 μM alone, 18 h, normalized to DMSO as 100%
Method: THP-1 cells were plated in 96-well plates (10^5 cells/well) in 100 μL RPMI supplemented with 10% FBS, 100 U/mL penicillin and 100 μg/ml streptomycin. Compounds were dissolved in DMSO at 1 mM stock solution and were further diluted to 10 μM in the assay medium. 100 μL of this solution was added to the cells to obtain a final compound concentration of 5 μM ([…]). After 18 h incubation, a solution of MTT in assay media (0.5 mg/mL) was added to each well and further incubated for 4 to 6 h, followed by addition of cell lysis buffer (15% w/v SDS and 0.12% v/v 12N HCl aqueous solution), incubated overnight, and then absorbance measured at 570 nm using 650 nm as reference using Tecan Infinite M200 plate reader.

NF-κB [2] = assay: Measurement of NF-κB activation using THP1-Blue NF-κB cells (SEAP); assay type: cell-based; details: for activity at 5 µM: 20 h, two point normalized, compound 1 as 200%; for NF-κB activity (SAR discussion, in words): evaluated in both the presence and absence of LPS
[3] = compound 5 μM + LPS, LPS (10 ng/mL) as 100%, read-out: NF-κB SEAP Compound + LPS % Activation
[4] = compound 5 μM alone, LPS or DMSO as 100%, read-out: NF-κB SEAP Compound alone % Activation

SMILES | NF-κB FRET Compound + LPS % Activation (NF-κB [1]) | MTT Compound alone % Viability (THP-1 cells) | activity at 5 µM (NF-κB [2]; [3]) | activity at 5 µM (NF-κB [2]; [4]) | NF-κB activity (SAR discussion, in words) (NF-κB [2])
Cc1ccc(C)c(-c2ccc(NC(=O)c3ccc(S(=O)(=O)N4CCCCC4)cc3)nc2)c1 [Compound 18c, N-(5-(2,5-dimethylphenyl)pyridin-2-yl)-4-(piperidin-1-ylsulfonyl)benzamide] | 73.65% | 92.06% | 97.9% | 98.3% | none of these molecules that replaced the thiazole functionality were active
Cc1ccc(C)c(-c2nc(NC(=O)c3ccc(S(=O)(=O)N4CCCCC4)cc3)sc2C)c1 [Compound 18m, N-(4-(2,5-dimethylphenyl)-5-methylthiazol-2-yl)-4-(piperidin-1-ylsulfonyl)benzamide] | 186.92% | 96.90% | 179% | 159% | 
Cc1ccc(C)c(-c2csc(C(=O)Nc3ccc(S(=O)(=O)N4CCCCC4)cc3)n2)c1 [Compound 34b, 4-(2,5-dimethylphenyl)-N-(4-(piperidin-1-ylsulfonyl)phenyl)thiazole-2-carboxamide] | 134.57% | 91.08% | 104% | 98.8% | weak activity
Cc1ccc(N=[N+]=[N-])c(-c2csc(NC(=O)c3ccc(S(=O)(=O)N4CCCCC4)cc3)n2)c1 [Compound 70, N-(4-(2-azido-5-methylphenyl)thiazol-2-yl)-4-(piperidin-1-ylsulfonyl)benzamide] | 70.93% | 77.84% | 97.3% | 101% | inactive
CC(=O)N1CCN(S(=O)(=O)c2ccc(C(=O)Nc3nc(-c4cc(C)ccc4C)cs3)cc2)CC1 [Compound 58j, 4-((4-acetylpiperazin-1-yl)sulfonyl)-N-(4-(2,5-dimethylphenyl)thiazol-2-yl)benzamide] | 90.73% | 72.09% | 101% | 101% | inactive
Cc1ccc(C)c(-c2c[nH]c(NC(=O)c3ccc(S(=O)(=O)N4CCCCC4)cc3)n2)c1 [Compound 18a, N-(4-(2,5-dimethylphenyl)-1H-imidazol-2-yl)-4-(piperidin-1-ylsulfonyl)benzamide] | 142.21% | 50.69% | 97.3% | 99.3% | none of these molecules that replaced the thiazole functionality were active
CCCN(CC)S(=O)(=O)c1ccc(C(=O)Nc2nc(-c3cc(C)ccc3C)cs2)cc1 [Compound 58a, N-(4-(2,5-dimethylphenyl)thiazol-2-yl)-4-(N-ethyl-N-propylsulfamoyl)benzamide] | 158.36% | 73.63% | 217% | 207% | tolerated; also recorded: active
Cc1csc(NC(=O)c2ccc(S(=O)(=O)N3CCCCC3)cc2)n1 [Compound 12g, N-(4-methylthiazol-2-yl)-4-(piperidin-1-ylsulfonyl)benzamide] | 110.48% | 114.29% | 101% | 99.9% | None of these molecules had any NF-κB activity
C#Cc1ccc(C)c(-c2csc(NC(=O)c3ccc(S(=O)(=O)N4CCCCC4)cc3)n2)c1 [Compound 12t, N-(4-(5-ethynyl-2-methylphenyl)thiazol-2-yl)-4-(piperidin-1-ylsulfonyl)benzamide] | 88.20% | 82.42% | 90% | 101% | inactive
Cc1ccc(C)c(-c2csc(NC(=O)c3ccc(S(=O)(=O)N4CCN(C(=O)OC(C)(C)C)CC4)cc3)n2)c1 [Compound 58f, tert-butyl 4-((4-((4-(2,5-dimethylphenyl)thiazol-2-yl)carbamoyl)phenyl)sulfonyl)piperazine-1-carboxylate] | 95.64% | 81.23% | 105% | 101% | inactive
C#CC1CCN(S(=O)(=O)c2ccc(C(=O)Nc3nc(-c4cc(N=[N+]=[N-])ccc4C)cs3)cc2)CC1 [Compound 73, N-(4-(5-azido-2-methylphenyl)thiazol-2-yl)-4-((4-ethynylpiperidin-1-yl)sulfonyl)benzamide] | 197.10% | 84.53% | 398% | 363% | 
Cc1ccc(C)c(-c2ccc(NC(=O)c3ccc(S(=O)(=O)N4CCCCC4)cc3)cn2)c1 [Compound 18d, N-(6-(2,5-dimethylphenyl)pyridin-3-yl)-4-(piperidin-1-ylsulfonyl)benzamide] | 58.39% | 95.35% | 97.2% | 98.2% | none of these molecules that replaced the thiazole functionality were active
C#CCN(CCC)S(=O)(=O)c1ccc(C(=O)Nc2nc(-c3cc(C)ccc3C)cs2)cc1 [Compound 72c, N-(4-(2,5-dimethylphenyl)thiazol-2-yl)-4-(N-(prop-2-yn-1-yl)-N-propylsulfamoyl)benzamide] | 133.88% | 84.00% | 122% | 103% | lost their activity
Cc1ccc(C)c(-c2csc(NC(=O)c3ccc(S(=O)(=O)N4CCC5(CC4)N=N5)cc3)n2)c1 [Compound 72e, 4-((1,2,6-triazaspiro[2.5]oct-1-en-6-yl)sulfonyl)-N-(4-(2,5-dimethylphenyl)thiazol-2-yl)benzamide] | 168.82% | 84.40% | 168% | 144% | active
Cc1ccc2c(c1)-c1nc(NC(=O)c3ccc(S(=O)(=O)N4CCCCC4)cc3)sc1CC2 [Compound 12s, N-(8-methyl-4,5-dihydronaphtho[1,2-d]thiazol-2-yl)-4-(piperidin-1-ylsulfonyl)benzamide] | 159.62% | 102.16% | 141% | 128% | weakly active
CCCC1CCN(S(=O)(=O)c2ccc(C(=O)Nc3nc(-c4cc(C)ccc4Br)cs3)cc2)CC1 [Compound 59, N-(4-(2-bromo-5-methylphenyl)thiazol-2-yl)-4-((4-propylpiperidin-1-yl)sulfonyl)benzamide] | 211.88% | 98.59% | 298% | 484% | very potent and showed better potency than compound 1
CC(C)(C)c1csc(NC(=O)c2ccc(S(=O)(=O)N3CCCCC3)cc2)n1 [Compound 12k, N-(4-(tert-butyl)thiazol-2-yl)-4-(piperidin-1-ylsulfonyl)benzamide] |  | 127.74% | 94.1% | 99.5% | None of these molecules had any NF-κB activity
O=C(Nc1nc(-c2cccc3ccccc23)cs1)c1ccc(S(=O)(=O)N2CCCCC2)cc1 [Compound 12q, N-(4-(naphthalen-1-yl)thiazol-2-yl)-4-(piperidin-1-ylsulfonyl)benzamide] |  | 92.71% | 200% | 198% | equally potent
Cc1ccc(C)c(Cc2csc(NC(=O)c3ccc(S(=O)(=O)N4CCCCC4)cc3)n2)c1 [Compound 12f, N-(4-(2,5-dimethylbenzyl)thiazol-2-yl)-4-(piperidin-1-ylsulfonyl)benzamide] |  | 97.02% | 108% | 102% | inactive
Cc1ccc(Br)c(-c2csc(NC(=O)c3ccc(S(=O)(=O)N4CCCCC4)cc3)n2)c1 [Compound 12d, N-(4-(2-bromo-5-methylphenyl)thiazol-2-yl)-4-(piperidin-1-ylsulfonyl)benzamide] | 197.32% |  | 223% | 254% | active; also recorded: most potent
Cc1cccc(C)c1-c1csc(NC(=O)c2ccc(S(=O)(=O)N3CCCCC3)cc2)n1 [Compound 12p, N-(4-(2,6-dimethylphenyl)thiazol-2-yl)-4-(piperidin-1-ylsulfonyl)benzamide] |  | 99.64% | 209% | 185% | retained activity
